Measured values from patent US10125098B2, “Therapeutic compounds and methods of use thereof” (GENENTECH, INC., priority 2014, dated 2018).
Structures can show the parent of a compound that is named as a salt. Where two headings read alike, the source gives them in different places.

Tests used:
hNav1.7 = biological target: T1, hNav1.7 (Homo sapiens, UniProt Q15858); assay: Tritiated compound binding (LBA) to membranes from cells expressing hNav1.7 and the β1 subunit, competitive binding; details: competitive binding vs 100 pM [3H]compound, 18 h, room temperature, membranes with hNav1.7 and β1 subunit
T1 construct: expressed in transfected cells
T1 sequence (Q15858 1-1977 isoform Q15858-3): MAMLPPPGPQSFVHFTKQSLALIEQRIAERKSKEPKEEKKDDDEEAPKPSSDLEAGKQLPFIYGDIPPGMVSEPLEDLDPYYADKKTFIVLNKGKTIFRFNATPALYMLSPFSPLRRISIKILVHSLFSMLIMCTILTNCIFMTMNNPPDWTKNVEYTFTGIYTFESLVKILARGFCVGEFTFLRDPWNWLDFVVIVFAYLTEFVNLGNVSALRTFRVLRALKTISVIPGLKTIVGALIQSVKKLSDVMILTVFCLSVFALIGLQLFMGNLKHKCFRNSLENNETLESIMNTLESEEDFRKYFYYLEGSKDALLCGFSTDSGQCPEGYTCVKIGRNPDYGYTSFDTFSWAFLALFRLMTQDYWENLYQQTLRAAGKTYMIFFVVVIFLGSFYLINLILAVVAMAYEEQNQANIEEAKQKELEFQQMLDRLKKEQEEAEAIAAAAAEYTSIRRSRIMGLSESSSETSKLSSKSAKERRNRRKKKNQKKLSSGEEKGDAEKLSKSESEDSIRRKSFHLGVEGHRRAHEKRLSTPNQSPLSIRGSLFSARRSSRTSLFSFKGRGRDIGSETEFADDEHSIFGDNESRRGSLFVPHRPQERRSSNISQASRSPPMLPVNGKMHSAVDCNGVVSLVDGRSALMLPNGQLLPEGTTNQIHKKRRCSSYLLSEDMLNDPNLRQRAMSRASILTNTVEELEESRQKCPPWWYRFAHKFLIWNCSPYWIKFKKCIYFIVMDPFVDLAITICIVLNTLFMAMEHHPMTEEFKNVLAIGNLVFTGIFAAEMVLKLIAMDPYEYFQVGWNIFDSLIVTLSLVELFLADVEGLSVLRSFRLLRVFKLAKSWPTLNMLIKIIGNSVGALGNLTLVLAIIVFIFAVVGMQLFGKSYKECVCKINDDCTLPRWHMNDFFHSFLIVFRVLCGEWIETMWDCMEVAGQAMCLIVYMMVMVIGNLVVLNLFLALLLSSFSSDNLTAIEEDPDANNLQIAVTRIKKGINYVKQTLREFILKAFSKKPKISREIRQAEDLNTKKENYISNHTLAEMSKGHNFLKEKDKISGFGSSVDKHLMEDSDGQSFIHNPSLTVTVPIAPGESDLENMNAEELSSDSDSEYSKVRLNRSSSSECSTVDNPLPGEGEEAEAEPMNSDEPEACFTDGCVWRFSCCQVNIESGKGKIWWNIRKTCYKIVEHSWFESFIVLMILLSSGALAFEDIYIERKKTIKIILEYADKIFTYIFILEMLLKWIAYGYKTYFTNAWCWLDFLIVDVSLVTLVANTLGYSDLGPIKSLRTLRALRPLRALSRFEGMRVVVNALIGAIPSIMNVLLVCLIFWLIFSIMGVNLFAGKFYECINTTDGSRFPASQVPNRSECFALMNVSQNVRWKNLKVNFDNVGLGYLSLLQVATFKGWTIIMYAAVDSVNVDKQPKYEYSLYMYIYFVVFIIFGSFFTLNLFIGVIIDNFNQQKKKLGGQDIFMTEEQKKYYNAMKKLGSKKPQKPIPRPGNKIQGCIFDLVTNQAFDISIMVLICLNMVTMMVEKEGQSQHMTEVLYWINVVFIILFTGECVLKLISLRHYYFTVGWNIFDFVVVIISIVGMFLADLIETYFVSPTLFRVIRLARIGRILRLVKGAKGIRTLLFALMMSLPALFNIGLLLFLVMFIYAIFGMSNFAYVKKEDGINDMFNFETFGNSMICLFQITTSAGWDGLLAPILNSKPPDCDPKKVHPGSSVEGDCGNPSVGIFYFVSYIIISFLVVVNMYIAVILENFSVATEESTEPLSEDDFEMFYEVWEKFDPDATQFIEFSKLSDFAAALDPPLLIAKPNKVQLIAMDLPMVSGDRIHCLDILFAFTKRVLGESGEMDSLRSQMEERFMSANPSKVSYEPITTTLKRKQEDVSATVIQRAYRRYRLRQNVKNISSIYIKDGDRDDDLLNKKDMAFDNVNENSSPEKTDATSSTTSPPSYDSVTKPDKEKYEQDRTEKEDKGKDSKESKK
T1 sequence (Q07699 19-218 partner): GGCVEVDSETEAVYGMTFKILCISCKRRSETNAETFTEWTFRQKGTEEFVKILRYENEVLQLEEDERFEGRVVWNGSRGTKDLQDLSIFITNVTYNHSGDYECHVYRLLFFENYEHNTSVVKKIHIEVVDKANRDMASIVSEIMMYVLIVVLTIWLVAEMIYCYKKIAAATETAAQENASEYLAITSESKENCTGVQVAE
Procedure, shortened: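 Membranes from cells expressing hNav1.7 with β1 were incubated 18 h at room temperature with 100 pM tritiated formula (I) compound and increasing test compound, in 100 mM NaCl, 20 mM Tris HCl pH 7.4, 0.01% BSA.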

human NaV1.7 = biological target: T2, human NaV1.7 (Homo sapiens, UniProt Q15858); assay: Patch voltage clamp electrophysiology assay (EP), NaV1.7; assay type: cell-based; details: HEK-293 cells stably expressing NaV1.7 with β1 subunit; whole-cell patch clamp, membrane potential −60 mV (inactivated state)
T2 construct: permanently transfected with an expression vector containing the full-length cDNA coding for the desired human sodium channel α-subunit; expressed in transfected cells; host or cells: HEK-293
T2 sequence (Q15858 1-1977 isoform Q15858-3): as the sequence (Q15858 1-1977 isoform Q15858-3) above
T2 sequence (Q07699 19-218 partner): as the sequence (Q07699 19-218 partner) above
Description: (§1) The following patch voltage clamp electrophysiology studies were performed on representative compounds of the invention using human embryonic kidney cells (HEK), permanently transfected with an expression vector containing the full-length cDNA coding for the desired human sodium channel α-subunit, grown in culture media containing 10% FBS, 1% PSG, and 0.5 mg/mL G418 at 37° C. with 5% CO2. […] NaV1.7 and NaV1.5 cDNAs (NM_002977 and AC137587; SCN5A, respectively) were stably expressed in HEK-293 cells. The β1 subunit was coexpressed in both the NaV1.7 and NaV1.5 cell lines.
(§2) Sodium currents were measured using the patch clamp technique in the whole-cell configuration using either a PatchXpress automated voltage clamp or manually using an Axopatch 200B (Axon Instruments) or Model 2400 (A-M systems) amplifier. The manual voltage clamp protocol was as follows: Borosilicate glass micropipettes were fire-polished to a tip diameter yielding a resistance of 2-4 Mohms in the working solutions. The pipette was filled with a solution comprised of: 5 mM NaCl, 10 mM CsCl, 120 mM CsF, 0.1 mM CaCl2, 2 mM MgCl2, 10 mM HEPES, 10 mM EGTA; and adjusted to pH 7.2 with CsOH. The external solution had the following composition: 140 mM NaCl, 5 mM KCl, 2 mM CaCl2, 1 mM MgCl2, 10 mM HEPES; and adjusted to pH 7.4 with NaOH. In some studies, the external sodium was reduced by equimolar replacement with choline. Osmolarity in the CsF internal and NaCl external solutions was adjusted to 300 mOsm/kg and 310 mOsm/kg with glucose, respectively. All recordings were performed at ambient temperature in a bath chamber with a volume of 150 μL. Control sodium currents were measured in 0.5% DMSO. Controls and representative compounds of the invention were applied to the recording chamber through a 4-pinch or 8-pinch valve bath perfusion system manufactured by ALA Scientific Instruments.
(§3) Series resistance compensation was applied (60-80%). […] All statistics in this study are given as mean±SD.
(§4) The membrane potential was maintained at a voltage where inactivation of the channel is complete (which was −60 mV for both NaV1.7 and NaV1.5). The voltage is then stepped back to a very negative (Vhold=[…]) voltage for 20 ms and then a test pulse is applied to quantify the compound block. […] The percent decrease in sodium current following wash-on of compound was taken as the percent block of sodium channels.

NaV1.5 = biological target: T3, NaV1.5 (Homo sapiens, UniProt Q14524); assay: Patch voltage clamp electrophysiology assay (EP), NaV1.5; assay type: cell-based; details: HEK-293 cells stably expressing NaV1.5 with β1 subunit, whole-cell patch clamp, membrane potential −60 mV (inactivated state)
T3 construct: permanently transfected with an expression vector containing the full-length cDNA coding for the desired human sodium channel α-subunit; expressed in transfected cells; host or cells: HEK-293
T3 sequence (Q14524 whole entry): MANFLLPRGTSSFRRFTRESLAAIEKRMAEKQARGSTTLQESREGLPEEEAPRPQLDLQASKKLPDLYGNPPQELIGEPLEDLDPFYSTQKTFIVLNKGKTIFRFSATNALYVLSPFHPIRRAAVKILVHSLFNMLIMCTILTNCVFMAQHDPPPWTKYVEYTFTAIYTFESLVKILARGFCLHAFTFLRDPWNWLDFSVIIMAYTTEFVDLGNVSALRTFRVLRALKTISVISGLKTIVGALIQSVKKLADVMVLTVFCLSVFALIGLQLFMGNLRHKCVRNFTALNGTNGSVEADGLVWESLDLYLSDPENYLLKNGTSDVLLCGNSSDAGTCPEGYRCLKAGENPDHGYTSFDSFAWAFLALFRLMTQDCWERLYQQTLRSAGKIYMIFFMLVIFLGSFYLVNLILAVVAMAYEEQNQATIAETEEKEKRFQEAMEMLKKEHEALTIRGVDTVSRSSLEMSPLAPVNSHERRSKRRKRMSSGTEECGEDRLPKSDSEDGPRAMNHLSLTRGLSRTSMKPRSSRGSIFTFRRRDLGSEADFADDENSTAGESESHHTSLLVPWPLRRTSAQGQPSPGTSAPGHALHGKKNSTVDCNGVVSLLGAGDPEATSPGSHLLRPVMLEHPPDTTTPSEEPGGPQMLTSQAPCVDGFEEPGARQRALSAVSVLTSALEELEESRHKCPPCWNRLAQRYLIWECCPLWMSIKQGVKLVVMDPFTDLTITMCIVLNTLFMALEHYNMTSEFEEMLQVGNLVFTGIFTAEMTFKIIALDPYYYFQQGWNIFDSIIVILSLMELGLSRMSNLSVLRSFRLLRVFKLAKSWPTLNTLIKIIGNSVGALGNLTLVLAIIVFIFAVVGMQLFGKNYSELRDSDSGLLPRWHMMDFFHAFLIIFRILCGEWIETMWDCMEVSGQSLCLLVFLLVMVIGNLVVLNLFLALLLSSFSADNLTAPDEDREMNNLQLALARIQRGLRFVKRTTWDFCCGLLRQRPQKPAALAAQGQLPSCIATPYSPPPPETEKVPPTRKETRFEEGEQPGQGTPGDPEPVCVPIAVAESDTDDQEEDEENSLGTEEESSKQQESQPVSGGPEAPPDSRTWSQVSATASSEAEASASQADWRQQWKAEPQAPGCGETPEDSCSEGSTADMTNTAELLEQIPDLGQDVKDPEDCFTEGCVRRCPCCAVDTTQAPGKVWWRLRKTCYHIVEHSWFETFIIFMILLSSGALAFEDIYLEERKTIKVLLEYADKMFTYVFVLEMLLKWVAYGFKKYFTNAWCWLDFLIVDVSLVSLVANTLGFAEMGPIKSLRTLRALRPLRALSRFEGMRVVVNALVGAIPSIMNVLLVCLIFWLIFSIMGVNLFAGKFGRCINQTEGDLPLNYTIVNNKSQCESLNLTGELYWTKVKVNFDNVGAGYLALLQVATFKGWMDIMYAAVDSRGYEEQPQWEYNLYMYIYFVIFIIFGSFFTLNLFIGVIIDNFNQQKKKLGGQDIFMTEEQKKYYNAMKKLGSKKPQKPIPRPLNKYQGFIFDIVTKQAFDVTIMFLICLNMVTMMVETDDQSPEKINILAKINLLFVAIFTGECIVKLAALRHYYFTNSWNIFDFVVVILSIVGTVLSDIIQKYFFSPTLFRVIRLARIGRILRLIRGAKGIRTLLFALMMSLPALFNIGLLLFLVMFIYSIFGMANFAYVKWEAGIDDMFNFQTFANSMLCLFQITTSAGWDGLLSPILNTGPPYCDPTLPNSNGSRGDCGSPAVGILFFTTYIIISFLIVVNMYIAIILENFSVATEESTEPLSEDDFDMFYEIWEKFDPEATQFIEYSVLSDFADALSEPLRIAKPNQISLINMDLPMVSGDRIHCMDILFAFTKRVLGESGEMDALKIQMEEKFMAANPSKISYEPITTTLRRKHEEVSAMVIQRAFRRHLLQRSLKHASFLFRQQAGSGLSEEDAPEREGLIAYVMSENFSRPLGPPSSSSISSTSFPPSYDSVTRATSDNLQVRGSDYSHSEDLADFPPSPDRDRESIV
Description: as §1, §2, §3, §4

[1] = human, HEK-293 cells stably expressing human NaV1.5 with β1 subunit, pH 7.4

Structure (SMILES)	IC50 (hNav1.7) [nM]	IC50 (human NaV1.7) [nM]	IC50 (NaV1.5; read-out: Nav1.5) [nM]	IC50 (NaV1.5; [1]) [nM]
O=C(O)[C@@H]1[C@@H]2C[C@@H]2CN1C(=O)c1cc(C2CC2)c(OCC23CC4CC(CC(C4)C2)C3)cc1F (racemic) [Example 61, racemate-(1R, 3S, 5R)-2-(4-((adamantan-1-yl)methoxy)-5-cyclopropyl-2-fluorobenzoyl)-2-azabicyclo[3.1.0]hexane-3-carboxylic acid]	970	2700	12000	
CC1(COc2cc(F)c(C(=O)N[C@H](C(=O)O)C3CC3)cc2C2CC2)CN([C@H](c2ccccc2)c2cc(Cl)cc(Cl)c2)C1 (single isomer, unassigned) [Example 113]	7.6	610	15000	
Cc1cc(C(=O)N2CCC[C@H]2C(=O)O)c(F)cc1OCC12CC3CC(CC(C3)C1)C2 [Example 40, (S)-1-(4-(adamantan-1-ylmethoxy)-2-fluoro-5-methylbenzoyl)pyrrolidine-2-carboxylic acid]	452			
CC[C@H](C)[C@H](NC(=O)c1cc(C2CC2)c(OCC23CC4CC(CC(C4)C2)C3)cc1F)C(=O)O [Example 43, (2S,3S)-2-(4-(adamantan-1-ylmethoxy)-5-cyclopropyl-2-fluorobenzamido)-3-methylpentanoic acid]	82.3			
O=C(O)[C@@H]1CCCN1C(=O)c1cc(Cl)c(OC[C@@H]2C[C@@H]3[C@H](C2)C3(F)F)cc1F [Example 44]	≥ 10000			
CN(CC(=O)O)C(=O)c1cc(C2CC2)c(OCC23CC4CC(CC(C4)C2)C3)cc1F [Example 45, 2-(4-(adamantan-1-ylmethoxy)-5-cyclopropyl-2-fluoro-N-methylbenzamido)acetic acid]	8400	11700		
O=C(O)[C@@H]1C[C@H](O)CN1C(=O)c1cc(C2CC2)c(OCC23CC4CC(CC(C4)C2)C3)cc1F [Example 46, (2S,4S)-1-[4-(1-adamantylmethoxy)-5-cyclopropyl-2-fluoro-benzoyl]-4-hydroxy-pyrrolidine-2-carboxylic acid]	150	870		
O=C(O)[C@H]1C[C@@H](O)CN1C(=O)c1cc(C2CC2)c(OCC23CC4CC(CC(C4)C2)C3)cc1F [Example 47, (2R,4R)-1-[4-(1-adamantylmethoxy)-5-cyclopropyl-2-fluoro-benzoyl]-4-hydroxy-pyrrolidine-2-carboxylic acid]	≥ 10000	16000		
O=C(O)[C@@H]1CC(F)(F)CN1C(=O)c1cc(C2CC2)c(OCC23CC4CC(CC(C4)C2)C3)cc1F [Example 48, (2S)-1-[4-(1-adamantylmethoxy)-5-cyclopropyl-2-fluoro-benzoyl]-4,4-difluoro-pyrrolidine-2-carboxylic acid]	40	640		
O=C(O)[C@@H]1C[C@@H](F)CN1C(=O)c1cc(C2CC2)c(OCC23CC4CC(CC(C4)C2)C3)cc1F [Example 49, (2S,4R)-1-[4-(1-adamantylmethoxy)-5-cyclopropyl-2-fluoro-benzoyl]-4-fluoro-pyrrolidine-2-carboxylic acid]	10	230		
C[C@@H](c1cc(Cl)cc(Cl)c1)N1CCC(COc2cc(F)c(C(=O)N3C[C@H](F)C[C@H]3C(=O)O)cc2C2CC2)CC1 [Example 100]			18000	
C[C@@H]1CC[C@@H](C(=O)O)N1C(=O)c1cc(C2CC2)c(OCC23CC4CC(CC(C4)C2)C3)cc1F [Example 152, (2S,5R)-1-[4-(1-adamantylmethoxy)-5-cyclopropyl-2-fluoro-benzoyl]-5-methyl-pyrrolidine-2-carboxylic acid]			13000	
C[C@H]1CC[C@@H](C(=O)O)N1C(=O)c1cc(C2CC2)c(OCC23CC4CC(CC(C4)C2)C3)cc1F [Example 153, (2S,5S)-1-[4-(1-adamantylmethoxy)-5-cyclopropyl-2-fluoro-benzoyl]-5-methyl-pyrrolidine-2-carboxylic acid]			19000	
C[C@@H](c1cc(Cl)cc(Cl)c1)N1CCC(COc2cc(F)c(C(=O)N3C[C@H](F)C[C@H]3C(=O)O)cc2C2CC2)CC1 [Example 158, (2S,4R)-1-[5-cyclopropyl-4-[[1-[(1S)-1-(3,5-dichlorophenyl)ethyl]-4-piperidyl]methoxy]-2-fluoro-benzoyl]-4-fluoro-pyrrolidine-2-carboxylic acid]				≥ 30000
Nc1noc2ccc(-c3cc(Cl)ccc3Oc3cc(F)c(C(=O)N4CCC[C@H]4C(=O)O)cc3F)cc12 [Example 192, (S)-1-(4-(2-(3-aminobenzo[d]isoxazol-5-yl)-4-chlorophenoxy)-2,5-difluorobenzoyl)pyrrolidine-2-carboxylic acid trifluoroacetate]	≥ 10000			≥ 30000
O=C(O)[C@@H]1CCCN1C(=O)c1cc(Cl)c(Oc2cnc(OCC(F)(F)F)c(Cl)c2)cc1F [Example 217, (S)-1-(5-Chloro-4-((5-chloro-6-(2,2,2-trifluoroethoxy)pyridin-3-yl)oxy)-2-fluorobenzoyl)pyrrolidine-2-carboxylic acid trifluoroacetate]	2700			

Now from value to compound, other results behind:

IC50 (hNav1.7) [nM]	IC50 (human NaV1.7) [nM]	Structure (SMILES)	IC50 (NaV1.5; read-out: Nav1.5) [nM]	IC50 (NaV1.5; [1]) [nM]
360	2200	C[C@H](c1cc(Cl)cc(Cl)c1)N1CCC[C@H](COc2cc(F)c(C(=O)N3CCC[C@H]3C(=O)O)cc2C2CC2)C1 (single isomer, unassigned) [Example 73a]	12000	
93	1500	C[C@@H](c1cc(Cl)cc(Cl)c1)N1CCC[C@H](COc2cc(F)c(C(=O)N3CCC[C@H]3C(=O)O)cc2C2CC2)C1 (single isomer, unassigned) [Example 73b]	22000	
47	690	C[C@@H](c1cc(Cl)cc(Cl)c1)N1CCC(COc2cc(F)c(C(=O)N3CCC[C@H]3C(=O)O)cc2C2CC2)CC1 (single isomer, unassigned) [Example 79a]		≥ 30000
73	790	CC(c1cc(Cl)cc(Cl)c1)N1CCC(COc2cc(F)c(C(=O)N3CCC[C@H]3C(=O)O)cc2C2CC2)CC1 (single isomer, unassigned) [Example 79b]		≥ 30000
590	1500	O=C(O)[C@@H]1CCCN1C(=O)c1cc(C2CC2)c(OC2C3CC4CC2CC(Cl)(C4)C3)cc1F (single isomer, unassigned) [Example 80]		≥ 30000
8900	16000	O=C(O)[C@@H]1CCCN1C(=O)c1cc(Cl)c(OC2C3CC4CC2CC(Cl)(C4)C3)cc1F (single isomer, unassigned) [Example 81]		≥ 30000
1100	1800	O=C(O)[C@@H]1CCCN1C(=O)c1cc(C2CC2)c(OC2C3CC4CC2CC(Cl)(C4)C3)cc1F (single isomer, unassigned) [Example 82]		
640		O=C(O)[C@@H]1CCCN1C(=O)c1cc(Cl)c(OCC23CC4CC(CC(C4)C2)C3)cc1F [Example 41, (S)-1-(4-(adamantan-1-ylmethoxy)-5-chloro-2-fluorobenzoyl)pyrrolidine-2-carboxylic acid]		
231		C[C@]1(COc2cc(F)c(C(=O)N3CCC[C@H]3C(=O)O)cc2C2CC2)CC[C@@H](C(F)(F)F)CC1 [Example 42, cis-(S)-1-(5-cyclopropyl-2-fluoro-4-((1-methyl-4-(trifluoromethyl)-cyclohexyl)methoxy)benzoyl)pyrrolidine-2-carboxylic acid]		
≥ 10000		O=C(O)[C@@H]1CCCN1C(=O)c1cc(C2CC2)c(O[C@H]2CCCN(Cc3ccc(F)cc3Cl)C2)cc1F [Example 95, (S)-1-(4-(((S)-1-(2-chloro-4-fluorobenzyl)piperidin-3-yl)oxy)-5-cyclopropyl-2-fluorobenzoyl)pyrrolidine-2-carboxylic acid]		≥ 30000
